Reference: article PMC12261233, “Photoactivatable Cyclometalated Ir(III) Compound Penetrates the Blood-Brain Barrier in 3D Spheroidal and Advanced 3D Organoid Models of Inherently Resistant and Aggressive Brain Tumors” (ACS Pharmacology & Translational Science, 2025)
Read-outs that look alike come from different tables or passages of the source.

Legend:
U87MG cells = experiment: Antiproliferative activity, 2D monolayer, SRB assay; format: cell-based, human; details: for PI (phototoxicity index) 2D: IC50 dark / IC50 420 nm irradiated; for IC50: U87MG 2D monolayer, 90 min treatment, SRB
Method: The antiproliferative activity of the compounds under investigation was assessed using the Sulforhodamine B (SRB) assay on both 2D cell monolayers and 3D spheroids. For the 2D cell monolayer assay, cells were seeded in 96-well tissue culture plates at a density of 3 × 10^3 cells/well in 100 μL of culture medium. Following overnight incubation in a humidified CO2 incubator, the medium was replaced, and the cells were treated with the investigated compounds in a final volume of 200 μL/well of Earle’s Balanced Salt Solution (EBSS). The cells were then exposed to the tested compounds for 1.5 h under dark conditions (5% CO2, 37 °C) and subsequently irradiated with blue light (420 nm) for 30 min at an intensity of 58 W/m^2. After treatment, the samples were washed with Phosphate-Buffered Saline (PBS) and replenished with 200 μL of culture medium. Following an additional 70-h incubation, the cells were washed with PBS, fixed with trichloroacetic acid at 4 °C for 1 h, and stained with 0.4% SRB dye for 30 min. The stained cells were dissolved with Tris (10 mM), and the cell viability was assessed by measuring the absorbance at 570 nm using an Absorbance Reader (SPARK TECAN, SCHOELLER). […] After the 72-h spheroid formation period, the samples were treated and irradiated as described for the 2D cultures. […] The luminescence signal was detected using the plate reader SPARK (Tecan, Manedorf, Switzerland), and the IC50 values were calculated from the survival curves. All experiments were conducted in triplicate to ensure the reliability and reproducibility of the results. Furthermore, the concentrations of the compounds in the medium during the treatment were verified using Flame Atomic Absorption Spectroscopy (FAAS) or Inductively Coupled Plasma Mass Spectrometry (ICP-MS). […]
drug-free incubation. c IC50 values were determined by SRB assay. d IC50 values were determined by CellTiter-Glo® 3D chemiluminescent assay. e PI - phototoxicity index was calculated as the ratio of IC50 determined under the dark conditions / IC50 determined for 420 […]
models under irradiation conditions.

U87MG spheroids = experiment: Antiproliferative activity, 3D spheroids, CellTiter-Glo 3D assay; format: cell-based, human; details: for PI (phototoxicity index) 3D: IC50 dark / IC50 420 nm irradiated; for IC50: U87MG 3D spheroids, 90 min treatment, CellTiter-Glo 3D; for TMI (3D/2D): ratio of IC50 for 3D and 2D models under irradiation
Method: The antiproliferative activity of the compounds under investigation was assessed using the Sulforhodamine B (SRB) assay on both 2D cell monolayers and 3D spheroids. For the 2D cell monolayer assay, cells were seeded in 96-well tissue culture plates at a density of 3 × 10^3 cells/well in 100 μL of culture medium. Following overnight incubation in a humidified CO2 incubator, the medium was replaced, and the cells were treated with the investigated compounds in a final volume of 200 μL/well of Earle’s Balanced Salt Solution (EBSS). The cells were then exposed to the tested compounds for 1.5 h under dark conditions (5% CO2, 37 °C) and subsequently irradiated with blue light (420 nm) for 30 min at an intensity of 58 W/m^2. After treatment, the samples were washed with Phosphate-Buffered Saline (PBS) and replenished with 200 μL of culture medium. Following an additional 70-h incubation, the cells were washed with PBS, fixed with trichloroacetic acid at 4 °C for 1 h, and stained with 0.4% SRB dye for 30 min. The stained cells were dissolved with Tris (10 mM), and the cell viability was assessed by measuring the absorbance at 570 nm using an Absorbance Reader (SPARK TECAN, SCHOELLER). The absorbance readings were then converted to the percentage of control (% cell survival), and the antiproliferative effects were expressed as IC50 values, which were calculated from curves plotting cell survival (%) versus drug concentration (μM) (IC50 = the concentration of the agent that inhibits cell growth by 50%). For experiments with 3D spheroids, 2500 single cells/well were seeded on ultralow attachment U-shape 96-well plates (Corning, USA) and cultured for 72 h in 3D forming medium DMEM-F12 ham medium supplemented with growth and spheroid forming factors: 2% B27 (Thermo Fisher Scientific Inc., MA, USA), epidermal growth factor (EGF; Sigma-Aldrich, Germany, 20 ng mL^–1), fibroblast growth factor (FGF2; Sigma-Aldrich, Germany, 10 ng mL^–1), and BSA (0.15%). After the 72-h spheroid formation period, the samples were treated and irradiated as described for the 2D cultures. Subsequently, the samples were cultured in the 3D forming medium for an additional 70 h, and the antiproliferative potency of the tested compounds against spheroids was determined by assessing changes in IC50 values using the CellTiterGlo-3D assay (Promega). The luminescence signal was detected using the plate reader SPARK (Tecan, Manedorf, Switzerland), and the IC50 values were calculated from the survival curves. All experiments were conducted in triplicate to ensure the reliability and reproducibility of the results. Furthermore, the concentrations of the compounds in the medium during the treatment were verified using Flame Atomic Absorption Spectroscopy (FAAS) or Inductively Coupled Plasma Mass Spectrometry (ICP-MS).
The antiproliferative activity (IC50 valuesa) of the investigated compounds determined in 2D and 3D models of U87MG cellsb
Dark Irradiated PId Dark Irradiated PIe (3D/2D) […]
a Concentration that causes 50% inhibition of cell proliferation. b Cell monolayer or generated 3D spheroids were treated for 90 min with increasing concentrations of the investigated compounds, followed by 30 min of irradiation with blue light (420 nm; 58 Wm-2) and 70 h of drug-free incubation. c IC50 values were determined by SRB assay. d IC50 values were determined by CellTiter-Glo® 3D chemiluminescent assay. e PI - phototoxicity index was calculated as the ratio of IC50 determined under the dark conditions / IC50 determined for 420 […]
f TMI – tissue-mass index was calculated as the ratio of IC50 values determined for 3D and 2D models under irradiation conditions.

[1] = Stability in the dark by UV/vis spectroscopy; format: physicochemical; details: DMSO, water, cell culture medium (RPMI), presence of glutathione; up to 24h
Method: The stability of complex Ir10 was studied in DMSO, water (1% DMSO), and RPMI (5% DMSO) using UV/vis spectroscopy at different times in the absence and presence of GSH (10 mM) or NADH (100 μM) to mimic the cellular and physiological conditions (Figure S6).

[2] = dark, 70 h drug-free incubation, read-out: IC50 2D Dark
[3] = 30 min blue light 420 nm 58 W m-2, 70 h drug-free, read-out: IC50 2D Irradiated
[4] = dark, 70 h drug-free, read-out: IC50 3D Dark
[5] = 30 min blue light 420 nm 58 W m-2, 70 h drug-free, read-out: IC50 3D Irradiated

Row | Structure (SMILES) | PI (phototoxicity index) 2D (U87MG cells) | IC50 (U87MG cells; [2]) [µM] | IC50 (U87MG cells; [3]) [µM] | PI (phototoxicity index) 3D (U87MG spheroids) | IC50 (U87MG spheroids; [4]) [µM] | IC50 (U87MG spheroids; [5]) [µM] | TMI (3D/2D) (U87MG spheroids) | stability in the dark [1]
1 | Cc1ccc(-c2cc3[n+]4c(c2)-c2cccc[n+]2[Ir-3]42([Cl])([c]4c(ccc5c4OCO5)-c4n(C)c5ccccc5[n+]42)[n+]2ccccc2-3)cc1.F[P-](F)(F)(F)(F)F [Ir9] | 4.6 | 6.2 ± 0.7 | 1.3 ± 0.2 | 2.6 | 18.9 ± 0.2 | 7.3 ± 0.3 | 5.6 | 
2 | Cc1ccc(-c2cc3[n+]4c(c2)-c2cccc[n+]2[Ir-3]42([Cl])([c]4ccsc4-c4n(Cc5ccc(C(F)(F)F)cc5)c5ccccc5[n+]42)[n+]2ccccc2-3)cc1.F[P-](F)(F)(F)(F)F [Ir1] | 3.5 | 4.3 ± 0.1 | 1.3 ± 0.1 | 2.9 | 16.4 ± 0.2 | 5.7 ± 0.7 | 4.4 | 
3 | Cc1ccc(-c2cc3[n+]4c(c2)-c2cccc[n+]2[Ir-3]42([Cl])([c]4cc5ccccc5cc4-c4n(C)c5ccccc5[n+]42)[n+]2ccccc2-3)cc1.F[P-](F)(F)(F)(F)F [Ir7] | 4.7 | 7.1 ± 0.4 | 1.5 ± 0.2 | 1.6 | 10.8 ± 1.6 | 6.7 ± 0.6 | 4.5 | 
4 | Cc1ccc(-c2cc3[n+]4c(c2)-c2cccc[n+]2[Ir-3]42([Cl])([c]4ccsc4-c4n(C)c5ccccc5[n+]42)[n+]2ccccc2-3)cc1.F[P-](F)(F)(F)(F)F [Ir8] | 12 | 9.3 ± 0.9 | 0.8 ± 0.05 | 2.8 | 19.3 ± 0.7 | 7 ± 0.9 | 8.8 | 
5 | Cc1ccc(-c2cc3[n+]4c(c2)-c2cccc[n+]2[Ir-3]42([Cl])([c]4ccccc4-c4n(Cc5ccc(C(F)(F)F)cc5)c5ccccc5[n+]42)[n+]2ccccc2-3)cc1.F[P-](F)(F)(F)(F)F [Ir2] | 16 | 6.9 ± 0.4 | 0.43 ± 0.02 | 3.0 | 14.9 ± 0.5 | 5 ± 0.2 | 11.6 | 
6 | Cc1ccc(-c2cc3[n+]4c(c2)-c2cccc[n+]2[Ir-3]42([Cl])([c]4ccccc4-c4n(C)c5ccccc5[n+]42)[n+]2ccccc2-3)cc1.F[P-](F)(F)(F)(F)F [Ir6] | 23 | 23.9 ± 3.1 | 1 ± 0.1 | 3.1 | 26 ± 5.1 | 8.3 ± 1.1 | 8.3 | 
7 | COC(=O)c1ccc2c(c1)[n+]1c(n2Cc2ccc(C(F)(F)F)cc2)-c2cccc[c]2[Ir-3]123([Cl])[n+]1ccccc1-c1cc(-c4ccc(C)cc4)cc([n+]12)-c1cccc[n+]13.F[P-](F)(F)(F)(F)F [Ir10] | 15.5 | 34.2 ± 5.3 | 2.2 ± 0.9 | 3.9 | 41.3 ± 1.6 | 10.5 ± 0.6 | 4.8 | stable
